Source: the NIST ThermoML archive (doi:10.1016/j.jct.2015.01.004)
Several values for one entry are separate records, joined by “and”; a condition that tells them apart may be missing. Equal entries are not always repeated. ± gives the expanded uncertainty stated by the source.

Assay: molar heat capacity at constant pressure; xn = mol fraction of the nth substance listed
Conditions: 100 kPa

## [Si] [silicon] + [Li]
213.05 K, Crystal of intercomponent compound 2, relaxation calorimeter, x2 = 0.804
  molar heat capacity at constant pressure: 19.41 ± 0.79 J/K/mol
217.1 K, Crystal of intercomponent compound 2, relaxation calorimeter, x2 = 0.804
  molar heat capacity at constant pressure: 19.42 ± 0.79 J/K/mol
217.11 K, Crystal of intercomponent compound 1, relaxation calorimetry, x2 = 0.81
  molar heat capacity at constant pressure: 19.04 ± 0.77 J/K/mol
217.12 K, Crystal of intercomponent compound 2, relaxation calorimeter, x2 = 0.804
  molar heat capacity at constant pressure: 19.59 ± 0.8 J/K/mol
220 K, Crystal of intercomponent compound 1, relaxation calorimetry + DSC, x2 = 0.81
  molar heat capacity at constant pressure: 19.27 ± 0.78 J/K/mol
220 K, Crystal of intercomponent compound 2, relaxation calorimetry + DSC, x2 = 0.804
  molar heat capacity at constant pressure: 19.69 ± 0.8 J/K/mol
221.11 K, Crystal of intercomponent compound 2, relaxation calorimeter, x2 = 0.804
  molar heat capacity at constant pressure: 19.62 ± 0.8 J/K/mol
221.12 K, Crystal of intercomponent compound 1, relaxation calorimetry, x2 = 0.81
  molar heat capacity at constant pressure: 19.24 ± 0.78 J/K/mol
221.13 K, Crystal of intercomponent compound 2, relaxation calorimeter, x2 = 0.804
  molar heat capacity at constant pressure: 19.84 ± 0.81 J/K/mol
225.23 K, Crystal of intercomponent compound 2, relaxation calorimeter, x2 = 0.804
  molar heat capacity at constant pressure: 19.86 ± 0.81 J/K/mol
225.24 K, Crystal of intercomponent compound 1, relaxation calorimetry, x2 = 0.81
  molar heat capacity at constant pressure: 19.46 ± 0.79 J/K/mol
225.25 K, Crystal of intercomponent compound 2, relaxation calorimeter, x2 = 0.804
  molar heat capacity at constant pressure: 20.03 ± 0.81 J/K/mol
229.28 K, Crystal of intercomponent compound 2, relaxation calorimeter, x2 = 0.804
  molar heat capacity at constant pressure: 20.05 ± 0.81 J/K/mol
229.3 K, Crystal of intercomponent compound 1, relaxation calorimetry, x2 = 0.81
  molar heat capacity at constant pressure: 19.66 ± 0.8 J/K/mol
229.31 K, Crystal of intercomponent compound 2, relaxation calorimeter, x2 = 0.804
  molar heat capacity at constant pressure: 20.22 ± 0.82 J/K/mol
230 K, Crystal of intercomponent compound 1, relaxation calorimetry + DSC, x2 = 0.81
  molar heat capacity at constant pressure: 19.74 ± 0.8 J/K/mol
230 K, Crystal of intercomponent compound 2, relaxation calorimetry + DSC, x2 = 0.804
  molar heat capacity at constant pressure: 20.16 ± 0.82 J/K/mol
233.29 K, Crystal of intercomponent compound 2, relaxation calorimeter, x2 = 0.804
  molar heat capacity at constant pressure: 20.23 ± 0.82 J/K/mol
233.3 K, Crystal of intercomponent compound 1, relaxation calorimetry, x2 = 0.81
  molar heat capacity at constant pressure: 19.83 ± 0.81 J/K/mol
233.31 K, Crystal of intercomponent compound 2, relaxation calorimeter, x2 = 0.804
  molar heat capacity at constant pressure: 20.38 ± 0.83 J/K/mol
237.4 K, Crystal of intercomponent compound 2, relaxation calorimeter, x2 = 0.804
  molar heat capacity at constant pressure: 20.4 ± 0.83 J/K/mol
237.41 K, Crystal of intercomponent compound 1, relaxation calorimetry, x2 = 0.81
  molar heat capacity at constant pressure: 20 ± 0.81 J/K/mol
237.43 K, Crystal of intercomponent compound 2, relaxation calorimeter, x2 = 0.804
  molar heat capacity at constant pressure: 20.54 ± 0.83 J/K/mol
240 K, Crystal of intercomponent compound 1, relaxation calorimetry + DSC, x2 = 0.81
  molar heat capacity at constant pressure: 20.18 ± 0.82 J/K/mol
240 K, Crystal of intercomponent compound 2, relaxation calorimetry + DSC, x2 = 0.804
  molar heat capacity at constant pressure: 20.58 ± 0.84 J/K/mol
241.46 K, Crystal of intercomponent compound 2, relaxation calorimeter, x2 = 0.804
  molar heat capacity at constant pressure: 20.62 ± 0.84 J/K/mol
241.48 K, Crystal of intercomponent compound 1, relaxation calorimetry, x2 = 0.81
  molar heat capacity at constant pressure: 20.17 ± 0.82 J/K/mol
241.49 K, Crystal of intercomponent compound 2, relaxation calorimeter, x2 = 0.804
  molar heat capacity at constant pressure: 20.73 ± 0.84 J/K/mol
245.47 K, Crystal of intercomponent compound 2, relaxation calorimeter, x2 = 0.804
  molar heat capacity at constant pressure: 20.87 ± 0.85 J/K/mol
245.48 K, Crystal of intercomponent compound 1, relaxation calorimetry, x2 = 0.81
  molar heat capacity at constant pressure: 20.3 ± 0.82 J/K/mol
245.5 K, Crystal of intercomponent compound 2, relaxation calorimeter, x2 = 0.804
  molar heat capacity at constant pressure: 20.93 ± 0.85 J/K/mol
249.59 K, Crystal of intercomponent compound 2, relaxation calorimeter, x2 = 0.804
  molar heat capacity at constant pressure: 21 ± 0.85 J/K/mol
249.6 K, Crystal of intercomponent compound 1, relaxation calorimetry, x2 = 0.81
  molar heat capacity at constant pressure: 20.44 ± 0.83 J/K/mol
249.62 K, Crystal of intercomponent compound 2, relaxation calorimeter, x2 = 0.804
  molar heat capacity at constant pressure: 21.13 ± 0.86 J/K/mol
250 K, Crystal of intercomponent compound 1, relaxation calorimetry + DSC, x2 = 0.81
  molar heat capacity at constant pressure: 20.59 ± 0.84 J/K/mol
250 K, Crystal of intercomponent compound 2, relaxation calorimetry + DSC, x2 = 0.804
  molar heat capacity at constant pressure: 20.99 ± 0.85 J/K/mol
253.66 K, Crystal of intercomponent compound 2, relaxation calorimeter, x2 = 0.804
  molar heat capacity at constant pressure: 21.14 ± 0.86 J/K/mol
253.67 K, Crystal of intercomponent compound 1, relaxation calorimetry, x2 = 0.81
  molar heat capacity at constant pressure: 20.58 ± 0.84 J/K/mol
253.68 K, Crystal of intercomponent compound 2, relaxation calorimeter, x2 = 0.804
  molar heat capacity at constant pressure: 21.27 ± 0.86 J/K/mol
257.65 K, Crystal of intercomponent compound 2, relaxation calorimeter, x2 = 0.804
  molar heat capacity at constant pressure: 21.3 ± 0.87 J/K/mol
257.66 K, Crystal of intercomponent compound 1, relaxation calorimetry, x2 = 0.81
  molar heat capacity at constant pressure: 20.7 ± 0.84 J/K/mol
257.68 K, Crystal of intercomponent compound 2, relaxation calorimeter, x2 = 0.804
  molar heat capacity at constant pressure: 21.42 ± 0.87 J/K/mol
260 K, Crystal of intercomponent compound 1, relaxation calorimetry + DSC, x2 = 0.81
  molar heat capacity at constant pressure: 20.98 ± 0.85 J/K/mol
260 K, Crystal of intercomponent compound 2, relaxation calorimetry + DSC, x2 = 0.804
  molar heat capacity at constant pressure: 21.37 ± 0.87 J/K/mol
261.78 K, Crystal of intercomponent compound 1, relaxation calorimetry, x2 = 0.81
  molar heat capacity at constant pressure: 20.8 ± 0.84 J/K/mol
261.78 K, Crystal of intercomponent compound 2, relaxation calorimeter, x2 = 0.804
  molar heat capacity at constant pressure: 21.42 ± 0.87 J/K/mol
261.79 K, Crystal of intercomponent compound 2, relaxation calorimeter, x2 = 0.804
  molar heat capacity at constant pressure: 21.54 ± 0.87 J/K/mol
265.83 K, Crystal of intercomponent compound 2, relaxation calorimeter, x2 = 0.804
  molar heat capacity at constant pressure: 21.55 ± 0.88 J/K/mol
265.84 K, Crystal of intercomponent compound 1, relaxation calorimetry, x2 = 0.81
  molar heat capacity at constant pressure: 20.92 ± 0.85 J/K/mol
265.86 K, Crystal of intercomponent compound 2, relaxation calorimeter, x2 = 0.804
  molar heat capacity at constant pressure: 21.64 ± 0.88 J/K/mol
269.82 K, Crystal of intercomponent compound 2, relaxation calorimeter, x2 = 0.804
  molar heat capacity at constant pressure: 21.67 ± 0.88 J/K/mol
269.85 K, Crystal of intercomponent compound 1, relaxation calorimetry, x2 = 0.81
  molar heat capacity at constant pressure: 21.06 ± 0.86 J/K/mol
269.85 K, Crystal of intercomponent compound 2, relaxation calorimeter, x2 = 0.804
  molar heat capacity at constant pressure: 21.75 ± 0.88 J/K/mol
270 K, Crystal of intercomponent compound 1, relaxation calorimetry + DSC, x2 = 0.81
  molar heat capacity at constant pressure: 21.36 ± 0.87 J/K/mol
270 K, Crystal of intercomponent compound 2, relaxation calorimetry + DSC, x2 = 0.804
  molar heat capacity at constant pressure: 21.73 ± 0.88 J/K/mol
273.88 K, Crystal of intercomponent compound 2, relaxation calorimeter, x2 = 0.804
  molar heat capacity at constant pressure: 21.84 ± 0.89 J/K/mol
273.9 K, Crystal of intercomponent compound 1, relaxation calorimetry, x2 = 0.81
  molar heat capacity at constant pressure: 21.15 ± 0.86 J/K/mol
273.91 K, Crystal of intercomponent compound 2, relaxation calorimeter, x2 = 0.804
  molar heat capacity at constant pressure: 21.9 ± 0.89 J/K/mol
278.02 K, Crystal of intercomponent compound 1, relaxation calorimetry, x2 = 0.81
  molar heat capacity at constant pressure: 21.25 ± 0.86 J/K/mol
278.02 K, Crystal of intercomponent compound 2, relaxation calorimeter, x2 = 0.804
  molar heat capacity at constant pressure: 21.93 ± 0.89 J/K/mol
278.04 K, Crystal of intercomponent compound 2, relaxation calorimeter, x2 = 0.804
  molar heat capacity at constant pressure: 22 ± 0.89 J/K/mol
280 K, Crystal of intercomponent compound 1, relaxation calorimetry + DSC, x2 = 0.81
  molar heat capacity at constant pressure: 21.72 ± 0.88 J/K/mol
280 K, Crystal of intercomponent compound 2, relaxation calorimetry + DSC, x2 = 0.804
  molar heat capacity at constant pressure: 22.09 ± 0.9 J/K/mol
282.07 K, Crystal of intercomponent compound 2, relaxation calorimeter, x2 = 0.804
  molar heat capacity at constant pressure: 22.06 ± 0.9 J/K/mol
282.08 K, Crystal of intercomponent compound 1, relaxation calorimetry, x2 = 0.81
  molar heat capacity at constant pressure: 21.37 ± 0.87 J/K/mol
282.09 K, Crystal of intercomponent compound 2, relaxation calorimeter, x2 = 0.804
  molar heat capacity at constant pressure: 22.11 ± 0.9 J/K/mol
284.87 K, Crystal of intercomponent compound 1, Small sample (50 mg) DSC, x2 = 0.81
  molar heat capacity at constant pressure: 22.13 ± 0.54 J/K/mol and 22.16 ± 0.54 J/K/mol
284.87 K, Crystal of intercomponent compound 2, Small sample (50 mg) DSC, x2 = 0.804
  molar heat capacity at constant pressure: 22.41 ± 0.55 J/K/mol
286.06 K, Crystal of intercomponent compound 2, relaxation calorimeter, x2 = 0.804
  molar heat capacity at constant pressure: 22.16 ± 0.9 J/K/mol
286.08 K, Crystal of intercomponent compound 1, relaxation calorimetry, x2 = 0.81
  molar heat capacity at constant pressure: 21.42 ± 0.87 J/K/mol
286.08 K, Crystal of intercomponent compound 2, relaxation calorimeter, x2 = 0.804
  molar heat capacity at constant pressure: 22.26 ± 0.9 J/K/mol
290 K, Crystal of intercomponent compound 1, relaxation calorimetry + DSC, x2 = 0.81
  molar heat capacity at constant pressure: 22.08 ± 0.9 J/K/mol
290 K, Crystal of intercomponent compound 2, relaxation calorimetry + DSC, x2 = 0.804
  molar heat capacity at constant pressure: 22.45 ± 0.91 J/K/mol
290.12 K, Crystal of intercomponent compound 1, relaxation calorimetry, x2 = 0.81
  molar heat capacity at constant pressure: 21.52 ± 0.87 J/K/mol
290.13 K, Crystal of intercomponent compound 2, relaxation calorimeter, x2 = 0.804
  molar heat capacity at constant pressure: 22.36 ± 0.91 J/K/mol
294.26 K, Crystal of intercomponent compound 1, relaxation calorimetry, x2 = 0.81
  molar heat capacity at constant pressure: 21.6 ± 0.88 J/K/mol
294.27 K, Crystal of intercomponent compound 2, relaxation calorimeter, x2 = 0.804
  molar heat capacity at constant pressure: 22.5 ± 0.91 J/K/mol
294.79 K, Crystal of intercomponent compound 2, Small sample (50 mg) DSC, x2 = 0.804
  molar heat capacity at constant pressure: 22.86 ± 0.56 J/K/mol
294.8 K, Crystal of intercomponent compound 1, Small sample (50 mg) DSC, x2 = 0.81
  molar heat capacity at constant pressure: 22.38 ± 0.55 J/K/mol and 22.54 ± 0.55 J/K/mol
298.15 K, Crystal of intercomponent compound 1, relaxation calorimetry + DSC, x2 = 0.81
  molar heat capacity at constant pressure: 22.38 ± 0.91 J/K/mol
